Like-named read-outs stand apart in the source and are kept apart here.
Tests used:
Assay in all cases: biochemical
Set-up in all cases: KINOMEscan scanMAX competition binding, DNA-tagged kinases, qPCR read-out, percent control at 300 nM
[1] = molecular target: T1, RIPK5 (Homo sapiens, UniProt Q6XUX3)
T1 construct: gene DSTYK
T1 sequence (Q6XUX3 1-929): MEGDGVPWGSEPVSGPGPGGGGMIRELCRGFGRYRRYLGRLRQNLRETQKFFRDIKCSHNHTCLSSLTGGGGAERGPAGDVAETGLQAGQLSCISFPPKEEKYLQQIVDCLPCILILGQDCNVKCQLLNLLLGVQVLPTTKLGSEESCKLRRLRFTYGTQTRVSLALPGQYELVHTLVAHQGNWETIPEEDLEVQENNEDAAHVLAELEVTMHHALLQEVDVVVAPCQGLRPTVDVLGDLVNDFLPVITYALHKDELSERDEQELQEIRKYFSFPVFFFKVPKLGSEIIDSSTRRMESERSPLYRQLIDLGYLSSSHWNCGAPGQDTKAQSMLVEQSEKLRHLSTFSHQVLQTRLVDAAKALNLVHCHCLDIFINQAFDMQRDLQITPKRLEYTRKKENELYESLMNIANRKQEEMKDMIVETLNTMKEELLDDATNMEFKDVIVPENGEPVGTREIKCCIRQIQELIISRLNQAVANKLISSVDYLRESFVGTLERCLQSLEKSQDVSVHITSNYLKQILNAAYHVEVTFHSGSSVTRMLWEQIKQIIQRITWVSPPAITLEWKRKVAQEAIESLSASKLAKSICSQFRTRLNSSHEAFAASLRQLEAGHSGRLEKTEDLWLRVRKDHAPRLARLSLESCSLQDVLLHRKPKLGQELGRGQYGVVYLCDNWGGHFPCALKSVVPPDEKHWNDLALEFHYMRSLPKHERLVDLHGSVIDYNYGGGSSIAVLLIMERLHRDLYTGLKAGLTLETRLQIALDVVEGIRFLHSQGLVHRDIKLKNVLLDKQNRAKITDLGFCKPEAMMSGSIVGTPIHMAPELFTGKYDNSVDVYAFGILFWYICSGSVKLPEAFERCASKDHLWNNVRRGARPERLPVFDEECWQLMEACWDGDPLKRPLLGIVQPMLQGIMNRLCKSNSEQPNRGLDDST

[2] = molecular target: T2, BIKE (Homo sapiens, UniProt Q9NSY1)
T2 construct: gene BMP2K
T2 sequence (Q9NSY1 whole entry): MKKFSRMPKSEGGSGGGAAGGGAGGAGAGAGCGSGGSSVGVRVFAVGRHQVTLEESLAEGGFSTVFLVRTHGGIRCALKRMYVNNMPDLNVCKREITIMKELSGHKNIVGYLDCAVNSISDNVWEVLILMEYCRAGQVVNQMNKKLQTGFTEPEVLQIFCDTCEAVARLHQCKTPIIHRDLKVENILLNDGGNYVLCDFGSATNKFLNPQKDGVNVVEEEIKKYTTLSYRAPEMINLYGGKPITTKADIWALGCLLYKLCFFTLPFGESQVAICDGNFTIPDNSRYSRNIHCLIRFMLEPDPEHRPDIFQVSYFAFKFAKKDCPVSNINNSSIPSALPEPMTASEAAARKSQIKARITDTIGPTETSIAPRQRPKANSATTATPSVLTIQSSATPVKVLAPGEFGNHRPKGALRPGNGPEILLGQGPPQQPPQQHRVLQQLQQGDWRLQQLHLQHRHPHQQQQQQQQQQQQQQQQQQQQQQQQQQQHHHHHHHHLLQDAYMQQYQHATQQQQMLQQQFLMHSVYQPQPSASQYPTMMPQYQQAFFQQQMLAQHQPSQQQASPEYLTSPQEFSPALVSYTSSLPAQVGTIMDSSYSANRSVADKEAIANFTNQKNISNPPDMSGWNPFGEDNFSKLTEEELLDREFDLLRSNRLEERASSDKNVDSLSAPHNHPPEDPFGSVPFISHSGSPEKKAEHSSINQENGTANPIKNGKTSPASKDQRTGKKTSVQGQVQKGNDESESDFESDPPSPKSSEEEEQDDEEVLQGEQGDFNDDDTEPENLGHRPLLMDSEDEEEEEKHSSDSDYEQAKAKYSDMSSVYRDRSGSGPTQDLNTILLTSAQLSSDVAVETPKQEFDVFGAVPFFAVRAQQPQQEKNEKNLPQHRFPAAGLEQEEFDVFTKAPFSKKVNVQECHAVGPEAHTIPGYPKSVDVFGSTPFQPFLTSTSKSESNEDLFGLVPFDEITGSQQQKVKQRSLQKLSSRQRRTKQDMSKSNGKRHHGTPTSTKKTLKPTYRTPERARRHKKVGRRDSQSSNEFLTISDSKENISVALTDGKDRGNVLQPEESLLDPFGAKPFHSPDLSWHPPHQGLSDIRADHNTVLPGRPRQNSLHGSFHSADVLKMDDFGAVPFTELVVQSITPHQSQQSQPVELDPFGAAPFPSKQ

[3] = molecular target: T3, IKK-epsilon (Homo sapiens, UniProt Q14164)
T3 construct: gene IKBKE
T3 sequence (Q14164 1-716): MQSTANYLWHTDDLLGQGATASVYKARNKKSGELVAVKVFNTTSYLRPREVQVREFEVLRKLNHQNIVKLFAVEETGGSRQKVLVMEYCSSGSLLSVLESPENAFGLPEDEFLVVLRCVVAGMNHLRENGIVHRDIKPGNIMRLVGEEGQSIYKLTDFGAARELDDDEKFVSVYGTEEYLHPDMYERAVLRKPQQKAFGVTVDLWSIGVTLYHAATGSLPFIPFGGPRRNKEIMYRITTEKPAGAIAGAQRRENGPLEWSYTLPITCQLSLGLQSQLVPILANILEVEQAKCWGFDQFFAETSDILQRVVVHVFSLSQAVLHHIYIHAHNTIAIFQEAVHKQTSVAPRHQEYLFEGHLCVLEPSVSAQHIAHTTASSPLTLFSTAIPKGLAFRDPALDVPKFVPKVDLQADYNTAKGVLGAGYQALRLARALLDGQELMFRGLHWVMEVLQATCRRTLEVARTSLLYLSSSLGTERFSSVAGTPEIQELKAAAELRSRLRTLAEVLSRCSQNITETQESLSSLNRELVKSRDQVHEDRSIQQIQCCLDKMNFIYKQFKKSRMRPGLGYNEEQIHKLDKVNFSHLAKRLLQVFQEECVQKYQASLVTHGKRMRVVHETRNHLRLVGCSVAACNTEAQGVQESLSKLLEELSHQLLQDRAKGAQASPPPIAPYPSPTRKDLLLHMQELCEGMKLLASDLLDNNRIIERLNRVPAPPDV

[4] = molecular target: AAK1 (Homo sapiens, UniProt Q2M2I8)
Sequence of AAK1 (Q2M2I8 whole entry): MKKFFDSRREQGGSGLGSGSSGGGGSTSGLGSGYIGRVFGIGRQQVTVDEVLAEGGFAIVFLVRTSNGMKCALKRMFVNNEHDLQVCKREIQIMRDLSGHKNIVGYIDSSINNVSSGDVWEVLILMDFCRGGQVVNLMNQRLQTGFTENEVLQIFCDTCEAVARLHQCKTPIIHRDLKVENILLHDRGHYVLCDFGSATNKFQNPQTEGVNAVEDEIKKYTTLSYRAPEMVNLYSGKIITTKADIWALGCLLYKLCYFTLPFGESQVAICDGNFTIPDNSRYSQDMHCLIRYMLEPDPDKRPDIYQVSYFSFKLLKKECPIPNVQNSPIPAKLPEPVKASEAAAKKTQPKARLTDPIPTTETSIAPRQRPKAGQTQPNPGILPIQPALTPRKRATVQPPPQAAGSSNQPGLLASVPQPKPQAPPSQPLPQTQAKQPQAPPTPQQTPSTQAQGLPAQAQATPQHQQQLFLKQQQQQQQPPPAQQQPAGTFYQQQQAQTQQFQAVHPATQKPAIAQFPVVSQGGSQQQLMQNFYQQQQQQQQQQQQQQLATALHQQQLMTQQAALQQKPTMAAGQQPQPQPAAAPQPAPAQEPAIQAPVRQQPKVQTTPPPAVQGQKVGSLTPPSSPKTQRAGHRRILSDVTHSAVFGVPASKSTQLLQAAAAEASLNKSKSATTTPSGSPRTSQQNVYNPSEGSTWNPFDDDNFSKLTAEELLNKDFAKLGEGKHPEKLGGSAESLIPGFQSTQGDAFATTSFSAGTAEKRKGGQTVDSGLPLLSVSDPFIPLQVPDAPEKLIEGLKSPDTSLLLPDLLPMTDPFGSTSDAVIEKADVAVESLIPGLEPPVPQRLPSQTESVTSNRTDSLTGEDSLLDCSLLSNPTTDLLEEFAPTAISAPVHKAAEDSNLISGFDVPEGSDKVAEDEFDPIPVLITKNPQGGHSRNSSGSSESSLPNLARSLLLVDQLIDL

[5] = molecular target: MAP4K4 (Homo sapiens, UniProt O95819)
[6] = molecular target: FLT1 (Homo sapiens, UniProt P17948)
Sequence of FLT1 (P17948 whole entry): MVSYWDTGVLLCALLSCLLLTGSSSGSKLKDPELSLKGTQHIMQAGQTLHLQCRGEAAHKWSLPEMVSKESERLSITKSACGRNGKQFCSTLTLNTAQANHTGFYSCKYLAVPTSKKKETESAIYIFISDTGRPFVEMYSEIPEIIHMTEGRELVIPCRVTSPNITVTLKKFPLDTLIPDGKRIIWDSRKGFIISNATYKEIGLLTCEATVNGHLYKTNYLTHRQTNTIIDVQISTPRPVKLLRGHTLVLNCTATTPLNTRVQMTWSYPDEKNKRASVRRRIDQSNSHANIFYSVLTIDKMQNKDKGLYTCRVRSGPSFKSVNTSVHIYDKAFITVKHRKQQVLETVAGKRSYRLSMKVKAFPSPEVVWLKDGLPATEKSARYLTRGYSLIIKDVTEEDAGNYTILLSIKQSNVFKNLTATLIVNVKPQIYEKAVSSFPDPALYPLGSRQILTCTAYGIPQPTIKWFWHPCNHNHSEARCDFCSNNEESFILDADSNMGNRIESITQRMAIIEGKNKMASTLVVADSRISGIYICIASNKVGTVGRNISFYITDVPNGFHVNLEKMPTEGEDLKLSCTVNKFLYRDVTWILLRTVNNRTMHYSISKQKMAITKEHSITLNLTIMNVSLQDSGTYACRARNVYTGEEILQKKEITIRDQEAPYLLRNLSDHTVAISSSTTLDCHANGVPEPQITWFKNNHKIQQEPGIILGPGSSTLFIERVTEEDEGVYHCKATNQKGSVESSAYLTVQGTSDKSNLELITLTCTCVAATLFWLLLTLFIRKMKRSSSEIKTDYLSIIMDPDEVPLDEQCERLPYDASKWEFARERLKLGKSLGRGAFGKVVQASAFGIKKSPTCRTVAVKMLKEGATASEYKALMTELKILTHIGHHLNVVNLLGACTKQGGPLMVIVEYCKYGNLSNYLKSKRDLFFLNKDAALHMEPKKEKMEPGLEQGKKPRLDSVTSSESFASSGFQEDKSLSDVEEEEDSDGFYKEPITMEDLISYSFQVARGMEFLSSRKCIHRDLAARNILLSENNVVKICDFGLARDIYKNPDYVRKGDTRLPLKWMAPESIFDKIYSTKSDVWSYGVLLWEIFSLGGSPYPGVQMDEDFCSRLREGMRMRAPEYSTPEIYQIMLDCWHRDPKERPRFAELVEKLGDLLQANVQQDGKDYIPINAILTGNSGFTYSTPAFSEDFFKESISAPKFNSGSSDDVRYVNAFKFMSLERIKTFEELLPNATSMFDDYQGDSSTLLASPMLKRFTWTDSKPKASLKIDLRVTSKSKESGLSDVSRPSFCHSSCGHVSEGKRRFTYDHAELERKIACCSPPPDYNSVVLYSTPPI

[7] = molecular target: MARK2 (Homo sapiens, UniProt Q7KZI7)
Sequence of MARK2 (Q7KZI7 whole entry): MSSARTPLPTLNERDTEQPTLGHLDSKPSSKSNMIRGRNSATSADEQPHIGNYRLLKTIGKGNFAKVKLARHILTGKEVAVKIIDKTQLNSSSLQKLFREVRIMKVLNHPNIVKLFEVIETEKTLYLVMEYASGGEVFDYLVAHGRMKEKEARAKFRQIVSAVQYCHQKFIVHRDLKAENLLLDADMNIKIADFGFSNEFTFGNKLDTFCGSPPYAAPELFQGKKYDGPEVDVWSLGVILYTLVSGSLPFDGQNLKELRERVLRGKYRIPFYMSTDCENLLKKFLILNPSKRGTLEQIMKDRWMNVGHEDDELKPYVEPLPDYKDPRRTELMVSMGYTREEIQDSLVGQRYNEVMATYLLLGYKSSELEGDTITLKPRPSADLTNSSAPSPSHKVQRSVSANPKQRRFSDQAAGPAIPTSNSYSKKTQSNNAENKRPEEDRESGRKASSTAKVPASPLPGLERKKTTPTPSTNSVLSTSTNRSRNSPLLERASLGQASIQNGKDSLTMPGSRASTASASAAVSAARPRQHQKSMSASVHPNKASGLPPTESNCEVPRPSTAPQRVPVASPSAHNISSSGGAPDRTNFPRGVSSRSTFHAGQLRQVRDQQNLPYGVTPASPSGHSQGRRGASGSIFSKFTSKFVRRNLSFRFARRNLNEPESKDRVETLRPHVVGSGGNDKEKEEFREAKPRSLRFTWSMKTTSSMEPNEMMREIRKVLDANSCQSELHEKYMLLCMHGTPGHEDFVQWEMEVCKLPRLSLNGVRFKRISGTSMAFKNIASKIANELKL

[8] = read-out: Percent control / Tirabrutinib
[9] = read-out: Percent control / Ibrutinib
[10] = read-out: Percent control / Zanubrutinib
[11] = read-out: Percent control / Acalabrutinib

CC#CC(=O)N1CC[C@@H](n2c(=O)n(-c3ccc(Oc4ccccc4)cc3)c3c(N)ncnc32)C1 [Tirabrutinib]
remaining binding at 0.3 µM [1, 8]: 93%
remaining binding at 0.3 µM [2, 8]: 88%
remaining binding at 0.3 µM [3, 8]: 92%
remaining binding at 0.3 µM [4, 8]: 57%
remaining binding at 0.3 µM [5, 8]: 98%
remaining binding at 0.3 µM [6, 8]: 74%

C=CC(=O)N1CCC[C@@H](n2nc(-c3ccc(Oc4ccccc4)cc3)c3c(N)ncnc32)C1 [Ibrutinib]
remaining binding at 0.3 µM [1, 9]: 47%
remaining binding at 0.3 µM [2, 9]: 66%
remaining binding at 0.3 µM [7, 9]: 87%
remaining binding at 0.3 µM [3, 9]: 83%
remaining binding at 0.3 µM [5, 9]: 98%
remaining binding at 0.3 µM [6, 9]: 82%

C=CC(=O)N1CCC([C@@H]2CCNc3c(C(N)=O)c(-c4ccc(Oc5ccccc5)cc4)nn32)CC1 [Zanubrutinib]
remaining binding at 0.3 µM [1, 10]: 100%
remaining binding at 0.3 µM [7, 10]: 90%
remaining binding at 0.3 µM [3, 10]: 100%
remaining binding at 0.3 µM [4, 10]: 96%
remaining binding at 0.3 µM [5, 10]: 100%

CC#CC(=O)N1CCC[C@H]1c1nc(-c2ccc(C(=O)Nc3ccccn3)cc2)c2c(N)nccn12 [Acalabrutinib]
remaining binding at 0.3 µM [2, 11]: 94%
remaining binding at 0.3 µM [7, 11]: 91%
remaining binding at 0.3 µM [3, 11]: 76%
remaining binding at 0.3 µM [4, 11]: 94%
remaining binding at 0.3 µM [5, 11]: 92%
remaining binding at 0.3 µM [6, 11]: 89%
